# Data reported in article PMC6691587, “New CXCR1/CXCR2 inhibitors represent an effective treatment for kidney or head and neck cancers sensitive or refractory to reference treatments” (Theranostics, 2019).
# “And” between values parts separate entries of the source, which are not always exact repeats. Equal values may be shown once. “Also recorded” adds a separate entry of the source. Read-outs that look alike come from different tables or passages of the source.
# Legend:
# CAL27 = experiment: XTT cell viability assay, CAL27 HNSCC cells; assay type: cell-based, human; details: for IC50: Homo sapiens, CAL-27
# Description: (§1) Fifty microliters of sodium 3′-[1-phenylaminocarbonyl)-3,4-tetrazolium]-bis(4-methoxy-6-nitro) benzene sulfonic acid hydrate (XTT) reagent was added to each well. The assay is based on the cleavage of the yellow tetrazolium salt XTT to form an orange formazan dye by metabolically active cells. This bio-reduction occurs in viable cells only and is related to NAD(P)H production through glycolysis. Therefore, the amount of formazan dye measured at 490 nm directly correlated with the number of metabolically active cells reflecting cell proliferation and viability. Each assay was performed in quadruplicate.
# A498 = experiment: XTT cell viability assay, A498 RCC cells; assay type: cell-based, human; details: for IC50: Homo sapiens, A498
# Description: as §1
# OCI-AML2 = experiment: XTT cell viability assay, OCI-AML2 AML cells; assay type: cell-based, human; details: Homo sapiens, OCI-AML2, 48 h, SD 10%, mean of three experiments, read-out: IC50 L2 (AML)
# Description: as §1
# [1] = system: primary normal kidney cells (15S); experiment: Cell viability, primary normal kidney cells; assay type: cell-based
# Description: as §1
# For the experiments with C29, we confirmed all the results by evaluating the cell viability. Cell viability and cell death was assessed using the ADAM-MC apparatus (NanoEnTek, Guro-gu, Seoul, Korea) based on fluorescent propidium iodide staining according to the manufacturer's instructions.
# To determine the selectivity of the activity of the substances tested, the selectivity index (SI) was calculated according to the equation previously described where SI = IC50 of a compound in a normal cell line/IC50 of the same compound in cancer cell line. The IC50 is the concentration required to kill 50% of the cell population.
# CXCR1 = molecular target: T1, CXCR1 (Homo sapiens, UniProt P25024); experiment: Membrane-associated CXCR1 level in HuVEC by flow cytometry; assay type: cell-based; details: CXCL7 25 ng/ml 1 h, C29 2.5 µmol/L
# T1 construct: CXCR1/2 are expressed on endothelial cells and participate in ELR^+CXCL-mediated angiogenesis; endogenous in cells; host or cells: HuVEC
# T1 sequence (P25024 whole entry): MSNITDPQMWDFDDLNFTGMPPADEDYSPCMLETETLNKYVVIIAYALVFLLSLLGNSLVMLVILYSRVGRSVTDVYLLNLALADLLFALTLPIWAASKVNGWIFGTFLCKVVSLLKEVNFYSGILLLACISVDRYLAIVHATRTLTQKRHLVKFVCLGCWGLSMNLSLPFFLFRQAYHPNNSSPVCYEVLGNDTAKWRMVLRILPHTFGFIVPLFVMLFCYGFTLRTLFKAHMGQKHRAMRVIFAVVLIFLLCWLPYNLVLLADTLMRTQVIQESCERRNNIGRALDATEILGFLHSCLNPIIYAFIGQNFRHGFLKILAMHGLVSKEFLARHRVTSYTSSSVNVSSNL
# CXCR2 = molecular target: T2, CXCR2 (Homo sapiens, UniProt P25025); experiment: Membrane-associated CXCR2 level in HuVEC by flow cytometry; assay type: cell-based; details: CXCL8 25 ng/ml 1 h, C29 2.5 µmol/L
# T2 construct: CXCR1/2 are expressed on endothelial cells and participate in ELR^+CXCL-mediated angiogenesis; endogenous in cells; host or cells: HuVEC
# T2 sequence (P25025 whole entry): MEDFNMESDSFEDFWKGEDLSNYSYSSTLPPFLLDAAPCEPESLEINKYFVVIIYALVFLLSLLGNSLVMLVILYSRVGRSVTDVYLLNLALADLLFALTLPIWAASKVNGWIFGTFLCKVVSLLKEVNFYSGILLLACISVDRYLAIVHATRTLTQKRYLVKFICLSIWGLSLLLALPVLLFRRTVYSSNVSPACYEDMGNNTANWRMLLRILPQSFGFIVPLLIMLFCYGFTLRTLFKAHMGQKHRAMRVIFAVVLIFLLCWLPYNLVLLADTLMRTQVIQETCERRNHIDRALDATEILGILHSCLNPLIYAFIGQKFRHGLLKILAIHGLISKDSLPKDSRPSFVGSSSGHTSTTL
# Description: CXCR2 measurement: After stimulation, cells were washed with PBS and stained with the CXCR2-PE antibody (Miltenyi) for 30 min at room temperature. Fluorescence was measured using the FL2 (PE) channels of a fluorescence-activated cell sorter apparatus (Calibur cytometer).
# HuVEC = experiment: Boyden chamber migration assay; assay type: cell-based, human; details: CXCL7 50 ng/ml, 2.5 µmol/L compound
# Description: CXCL7 or VEGFA-stimulated chemotaxis assays were monitored using modified Boyden chambers containing polycarbonate membranes (8-μm pores, Transwell; Corning, Sigma). Cells were seeded onto the upper side of the filters and chambers were placed on 24-well plates containing CXCL7 (50ng/ml) or VEGFA (50ng/ml). Cell migration was followed for 24 h at 37°C in 5% CO2. Migratory cells on the lower membrane surface were fixed in 3% paraformaldehyde, stained with 0.1% crystal violet.
# [2] = system: sunitinib-resistant 786-O cells (786R); experiment: XTT cell viability assay, sunitinib-resistant 786-O cells; assay type: cell-based, human; details: 1 to 10 µM 48 h, 2.5 µM 24 to 96 h
# Description: as §1
# [3] = system: cisplatin-resistant CAL27 cells (CAL27R); experiment: XTT cell viability assay, cisplatin-resistant CAL27 cells; assay type: cell-based, human; details: 1 to 10 µM 48 h, 2.5 µM 24 to 96 h
# Description: as §1
# [4] = In vitro (in cellulo) stability assay; assay type: in vitro ADME, human; details: 786-O cells, 2.5 µM, 24 h at room temperature, UPLCMS/MS
# Description: The in vitro stability was determined as followed: 786-O cells were treated with 2.5 µM of compound C29 for the defined time, then lysed with methanol. The lysates were filtered and analyzed by UPLCMS/MS.
# [5] = Pharmacokinetic parameters after oral administration; assay type: in vivo; details: plasma, CD-1 mice, oral gavage 50 mg/kg
# Description: The in vivo pharmacokinetic parameters were determined in CD-1 mice at a dose of 50 mg/kg after oral administration. The plasma samples (400 µL) were mixed with acetonitrile (1 mL) to precipitate the proteins and extract the compound. After mixing and sonication, proteins were precipitated by centrifugation and the supernatants were analyzed by UPLCMS/MS.
# A498 cells = experiment: Ectopic model of RCC (A498 xenograft); assay type: in vivo, nude (nu/nu) female mice
# Description: (§2) One microgram of total RNA was used for the reverse transcription, using the QuantiTect Reverse Transcription kit (QIAGEN, Hilden, Germany), with blend of oligo (dT) and random primers to prime first-strand synthesis. SYBR master mix plus (Eurogentec) was used for qPCR. The mRNA level was normalized to 36B4 mRNA. The sequences of oligo nucleotides used in our experiments are describe in Table S1.
# (§3) These studies were carried out in strict accordance with the recommendations in the Guide for the Care and Use of Laboratory Animals. Our experiments were approved by the ''Comité National Institutionnel d'Ethique pour l'Animal de Laboratoire'' (reference: PEA-255 and PEA-277). Cells were injected subcutaneously into the flank of 5-week-old nude (nu/nu) female mice (Janvier). When the tumor reached 100 mm^3, mice were treated. The tumor volume was determined with a caliper (v = L*l2*0.5).
# 1-Seven million A498 cells were injected subcutaneously. Mice were treated five times a week for 4 weeks, by gavage with placebo (dextrose water vehicle) or C29 (50 mg/kg).
# (§4) Sections of formol-fixed and paraffin-embedded tumors were incubated with monoclonal anti-Ki67 (clone MIB1, DAKO) or anti-CD31 (clone MEC 13.3, BD Pharmingen) antibodies. A biotinylated secondary antibody (DAKO) was applied and binding was detected with the substrate diaminobenzidine against a hematoxylin counterstain.
# CAL33 = experiment: Ectopic model of HNSCC (CAL33 xenograft); assay type: in vivo, nude (nu/nu) female mice
# Description: as §2, §3
# One million CAL33 were injected subcutaneously.
# as §4
# [6] = CAL33 xenograft, 100 mg/kg gavage
smiles,measurement,setting,value
O=C(Nc1cccc(Cl)c1)Nc1nc2ccc([N+](=O)[O-])cc2s1 [C29],IC50,"CAL27; CXCR1+/CXCR2+, read-out: IC50 CAL27",2500 nM
same,IC50,"CAL27; XTT assay, 48 h, SD 10%, mean of three experiments, read-out: IC50 27 (HNSCC)",2500 nM
same,Selectivity index CAL27,CAL27; SI = IC50 in normal cells (15S)/IC50 in CAL27,5
same,effect on CAL27 HNSCC cell viability compared with cisplatin,"CAL27; XTT, 1 to 10 µM 48 h, 2.5 µM 24 to 96 h",greater than that of cisplatin
same,IC50,"A498; CXCR1+/CXCR2+, read-out: IC50 A498",2500 nM
same,IC50,"A498; XTT assay, 48 h, SD 10%, mean of three experiments, read-out: IC50 498 (Kidney RCC)",2500 nM
same,Selectivity index A498,A498; SI = IC50 in normal cells (15S)/IC50 in A498,5
same,IC50,OCI-AML2,5000 nM
same,IC50,"[1]; CXCR1-/CXCR2-, normal primary kidney cells",12500 nM
same,Selectivity index 15S,"[1]; SI = IC50 in normal cell line (15S)/IC50 in this cell line, reference",1
same,effect on primary normal kidney cells (15S),[1]; even at a higher concentration (5 µmol/L),no effect
same,CXCR1 levels at the plasma membrane,CXCR1,increased
same,CXCR2 levels at the plasma membrane,CXCR2,increased
same,CXCL7-dependent migration of HuVECs,HuVEC,decreased
same,effect on cell viability of sunitinib-resistant 786-O cells,[2],conserved
same,effect on cisplatin-resistant CAL27 cell viability,[3],equivalent
same,stability in cellulo (degradation),[4],No degradation; also recorded: absence of degradation
same,half-life,"[5]; CD-1, mouse, po, 50 mg/kg, formulated at 7.6 mg/mL, read-out: half-life (t ½)",3.17 h
same,AUC,[5]; mouse,~1420 ng·h/mL
same,Cmax,[5]; mouse,900 ng/mL and 2.6 µM
same,Tmax,[5]; mouse,0.5 h
same,AUC(0-t),"[5]; mouse, read-out: AUC last PO (converted)",1420 ng·h/mL
same,"mRNA level of murine CD31, experimental RCC",A498 cells,decreased
same,"decrease in the tumor weight, RCC",A498 cells; 50 mg/kg gavage,40%
same,"proliferation marker Ki-67, experimental RCC",A498 cells; 50 mg/kg gavage,decreased
same,"weight loss of the animals, RCC model",A498 cells; 50 mg/kg gavage,did not observe any weight loss
same,"decrease of the tumor volume at the end of the experiment, RCC",A498 cells; 50 mg/kg gavage five times a week for 4 weeks,more than 65%
same,"PI3K/AKT and ERK pathways in tumor lysates, experimental RCC",A498 cells; immunoblotting,inhibited PI3K/AKT but not the ERK pathway
same,"mRNA levels of ERL+CXCL cytokines (CXCL5/7/8), experimental RCC","A498 cells; qPCR, VEGFA not decreased",significantly decreased
same,"mRNA level of murine CD31, experimental HNSCC",CAL33; CAL33 xenograft,decreased
same,"decrease in the tumor weight, HNSCC",CAL33; [6],65%
same,"proliferation marker Ki-67, experimental HNSCC",CAL33; [6],decreased
same,"weight loss of the animals, HNSCC model",CAL33; [6],did not observe any weight loss
same,"decrease of the tumor volume at the end of the experiment, HNSCC","CAL33; CAL33 xenograft, 100 mg/kg gavage five times a week for two weeks",more than 65%
same,"PI3K/AKT and ERK pathways in tumor lysates, experimental HNSCC","CAL33; immunoblotting, CAL33 xenograft",both pathways
same,efficacy on experimental HNSCC compared with danirixin and cisplatin,CAL33; oral gavage 100 mg/kg five times a week,"more efficient than danirixin, at the same dose, or than the reference treatment with cisplatin"
same,"mRNA levels of ERL+CXCL cytokines, experimental HNSCC","CAL33; qPCR, CAL33 xenograft",Only CXCL5 was decreased
